According to article PMC3569039 (Bioorganic & medicinal chemistry letters, 2011):

System: HeLa cells

Fluo-3
cellular debris in treated cells (apparent cytotoxicity): significant amount of cellular debris
